The results in this text go back to publication PMC5131364, “Pharmacologic modulation of RORγt translates to efficacy in preclinical and translational models of psoriasis and inflammatory arthritis” (Scientific Reports, 2016).

Assay [1] relates to mouse splenocytes. Kind of assay: IL-23 induced IL-17A and IL-22 production in mouse splenocytes. The class given is cell-based. Particulars: Splenocyte, 96 h, IL-23 and IL-2, 4 days. As for the experimental part:
Mouse CD4+ T cell in vitro Th1 differentiation
Total CD4+ T cells were isolated from splenocytes of C57/BL6 mice (Chareles River Labrotory) using a CD4+ T cell isolation kit (Miltenyl Biotec, Auburn, CA), following the manufacturer’s instructions. Cells were resuspended in culture medium (described in Method section of Th17 differentiation) and were added to 96‐well plates at 2x10^5 per well. Titrated JNJ‐54271074 was added to each well at final DMSO concentration of 0.2%. Cells were incubated for 1 hour, after which Th1 cell differentiation medium was added with final concentrations of 1 µg/ml anti‐CD3, 5 µg/mL anti‐CD28 (BD Pharmingen, San Diego, CA), 10 µg/ml anti‐IL4, 10 ng/mL IL‐12, (R&D Systems, Minneapolis, MN). Cells were cultured at 37 °C and 5% CO2 for 3 days. Supernatants were collected and the accumulated cytokines in culture were measured by ELISA kits (R&D Systems, Minneapolis, MN) following manufacturers' instructions.
IL‐23 induced IL‐17A and IL‐22 production in mouse splenocytes splenocytes were isolated from C57/BL6 mice and resuspended in medium and cultured in 96‐well plates at […] per 100 µL per well. […] Supernatants were collected and the accumulated cytokines in culture were measured by ELISA according to the manufacturer’s instructions (IL‐17A kit from R&D systems, and IL‐22 from Biolegend San Diego). […]

Assay [2] has as its system human CD4+ CD45RO+ CCR6+ T cells. In words: Human memory CCR6+ T cells in vitro activation. Type of assay: cell-based. From the text:
The following antibodies (anti-mouse or anti-human) were purchased from BD Biosciences (San Diego, CA) or eBioscience (San Diego, CA): anti-CD3-FITC (mouse 17A2 and human SK7), anti-CD4-allophycocyanin (APC), anti-CD4-PerCp, anti-CD4-FITC, anti-CD4-PE (mouse GK1.5 and human SK3), anti-CD44-PerCp (mouse IM7), anti-γδ TCR-FITC, anti-γδ TCR-PE (mouse GL3 and human B1), anti-CD62L-FITC (mouse MEL-14 and human SK11), anti-CD45RO-APC (human UCHL1), anti-CCR6-PE (human 11A9), anti-CD45-PerCp (mouse 30-F11). Human or mouse anti-IFNγ (mouse XMG1.2 and human 4S.B3), anti-TNFα (mouse MP6-XT22 and human MAB11), anti-IL-17A (mouse eBio17B7 and human eBio64DEC17), anti-IL-22 (mouse 1H8PWSR and human 22URTI), and anti-Foxp3 (mouse FJK-16s and human 36A/E7), all PE or APC conjugated, were purchased from eBioscience (San Diego, CA). Human and mouse APC conjugated CD1d tetramers pre-loaded with alpha-GalCer and negative controls were obtained from ProImmune. For intracellular staining cells were stimulated for 4 hours at 37 °C with PMA and ionomycin (0.5 μg/ml each) in the presence of brefeldin A and monensin or with leukocyte activation cocktail (BD Bioscience, San Diego, CA). Cells were stained with fluorescence-labeled antibodies for surface marker, then fixed/permeabilized (eBioscience) and stained with antibodies for intracellular cytokines. For Foxp3 staining cells were fixed/permeabilized using transcription factor buffer set (eBioscience). The data were acquired on a FACS Calibur (BD Bioscience) and analyzed using FlowJo software (Tree Star, San Carlos, CA).
Human blood samples from healthy donors were provided by the Scripps Research Institute, La Jolla following Institutional Review Board approved protocol. Total CD4^+ T cells were isolated from the peripheral blood mononuclear cells (PBMCs) using a CD4^+ T cell Isolation Kit II (Miltenyl Biotec, Auburn, CA), following the manufacturer’s instructions. CCR6^+ cells were isolated from CD4^+ T cells using phycoerythrin (PE) conjugated anti-CCR6 antibody followed by anti-PE microbeads. Isolated CCR6^+ T cells were resuspended in culture medium and added to a 96-well plate which was pre-coated with 1 μg/ml anti-CD3 (BD Bioscience) at 1 × 10^5 cells per well. […] Cells were cultured at 37 °C and 5% CO2 for 6 days. Supernatants were assayed for accumulated cytokines using MSD multi-spot assay (Meso Scale Discovery, Rockville, MD) or R&D ELISA kit, and cells were used for intracellular staining.

Read-outs that look alike come from different tables or passages of the source.

Take `COc1nc2ccc([C@@](O)(c3ccc(C)nc3C)c3cnnn3C)cc2c(Cl)c1Cc1ccc(C(F)(F)F)cc1` [JNJ-54271074]: in assay [1] (no anti-CD3/anti-CD28, read-out: IC50, IL-23-stimulated IL-17A production), the half-maximal inhibitory concentration (IC50) amounted to 19 nM. In addition, the concentration for half-maximal inhibition (IC50) in assay [1] (no anti-CD3/anti-CD28, read-out: IC50, IL-23-stimulated IL-22 production) came out at 37 nM. Also, in assay [2] (1 μM), the IFNγ production result was “slightly increasing”; the “IL-22, TNFα and GM-CSF production” value is “trend of decreasing”; the “increase of IL-10 production over the control” value is given as 49%. In addition, the “number of IL-17A-producing cells (single- and double-positive)” value in assay [2] (1 μM, flow cytometry) was “significantly decreased”. In addition, the inhibition at 1 µM in assay [2] (Homo sapiens, T-cell, vs DMSO control, non-polarizing activation, read-out: inhibition of IL-17A production) is 77%.
